Measured values reported in patent publication US10420753B2, “Combination therapies for treatment of spinal muscular atrophy” (Indiana University Research and Technology Corporation, priority 2016, dated 2019).

Legend:
[1] = system: SMN2 reporter (SMN2-luciferase) in HEK293 cells; assay: SMN2-luciferase reporter assay; format: cell-based, human; design: % Activation: concentration or dose not given beside the values; conditions: for EC50: Homo sapiens, HEK293; for % Activation: percentage increase over basal expression in DMSO control wells
Experimental: (§1) In this high throughput screening assay, the SMN promoter was combined with exons 1-6 and an exon 7 splicing cassette in a single construct that should respond to compounds that increase SMN transcription, exon 7 inclusion, or that might stabilize the SMN RNA or protein. A stable clonal HEK293 cell line that expresses the SMN2 reporter was isolated. Particularly, cells were incubated at 37° C. with 5% CO2. HEK-293 cells were cultured in D-MEM (Gibco 11995) with 10% fetal bovine serum (FBS; Atlas) and 1× pen-strep (Gibco 15140). Reporter cell lines containing SMN1, SMN2, or SV40 driven firefly luciferase reporters and a control (renilla luciferase reporter) were selected and maintained in D-MEM with 10% FBS and 1× pen-strep with 200 μg/mL hygromycin B (Invitrogen 10687-010). 3813 and 3814 fibroblasts were cultured in D-MEM (Gibco 11995) with 10% fetal bovine serum (FBS; Atlas) and 1× pen-strep (Gibco 15140).
The HEK293 reporter cell lines were then plated at 50,000 cells per well in 96-well plates and incubated overnight. […] The final DMSO concentration was 0.1%. Luciferase activity was assayed with either SteadyGlo (Promega E2510) or DualGlo (Promega E2920) luciferase using the Pherastar FS (BMG Labtech) plate reader. For detailed assay conditions, see Table 4. All data points were transformed from light units to percentage increase over basal expression in the treated control wells (DMSO concentration as appropriate, usually 0.1%) and expressed as percent activation (FIG. 1A). […]

[2] = system: SMN protein in patient-derived fibroblasts (3813 cells; SMN1-/-SMN2+/+); assay: SMN protein detection in patient fibroblasts by Western blot; format: cell-based, human; conditions: 3813 fibroblasts, 48 hours, dose dependent, relative to DMSO control
Experimental: For detection of SMN protein in patient fibroblasts, 8000 cells per cm^2 were plated 24 hours prior to compound addition. Since SMN is expressed ubiquitously, cells containing even one copy of the human SMN1 gene will mask the effects of compounds on expression from the SMN2 gene. SMN null cells are not viable. The current standard is to use a human cell line derived from a severe SMA patient. The fibroblast strain 3813 is SMN1 null with three copies of SMN2. […] SMN protein levels were analyzed by dose response in quantitative immunoblots with statistical analysis by one-way ANOVA with post-hoc analysis using Dunnett or Bonferroni, as appropriate. […] Quantification of protein was performed with the Fujifilm LAS-4000 Multifunctional Imaging System. The signal intensity was measured for each band on an immunoblot, normalized to the loading control, and the fold increase was determined in relation to the appropriate DMSO-treated control. Treatment of patient-derived fibroblasts (3813 cells; SMN1−/−SMN2+/+) with compound 291-88-1 gave a dose dependent 2-3 fold increase of SMN protein expression as determined by Western blot analysis (FIG. 1B).

[3] = system: renilla luciferase; assay: Renilla luciferase control in cycloheximide experiment; format: cell-based; conditions: 10 μM compound plus 10 μM cycloheximide
Experimental: as §1
To investigate the mechanism of action of LDN291-88-1, the HEK293 SMN2 reporter cells were exposed to LDN291-88-1 at a concentration of 10 μM plus 10 μM cycloheximide to block new protein synthesis, or the same concentration of cycloheximide plus DMSO for comparison. Cell lysates were prepared at the times indicated up to 24 hours as in FIGS. 3A & 3B. The amount of SMN-luciferase protein was quantified by luciferase assay and plotted versus time. […]

[4] = system: SMNΔ7 SMA mice; assay: Survival of SMA mice; format: in vivo; conditions: 10 mg/kg IP daily
Experimental: Compound 291-88-1 was administered either by intraperitoneal (IP) administration into the SMA mice SMNΔ7 FVB.SMNΔ7; SMN2; Smn (Jackson Laboratories 005025). Daily treatment of SMNΔ7 animals with 10 mg/kg (IP) was continued as long as feasible. The lifespan of treated animals was compared to that of untreated animals and vehicle (VH) treated animals (FIG. 13). VH treated animals included treatment with 40% PEG400+60% (10% HP-β-CD in water). […] Treatment with compound 291-88-1 increased median survival to 18.5 days, p<0.0001.

[5] = system: total SMN protein in brain extracts; assay: Brain SMN protein in treated mice, Western blot; format: in vivo; conditions: once daily subcutaneous or oral for 5 days from PND2, tissues PND7, dose-dependent
Experimental: Animals were treated once daily (subcutaneous injection or oral) for 5 days, starting on postnatal day 2 (PND) with increasing doses of 291-88-1. On PND7, mice were sacrificed and tissues were harvested. Tissues were harvested from treated animals on PND 7 and compared to tissues from non-transgenic control mice (FVB) and VH (vehicle: PEG:PBS 50:50) treated animals. Brain extracts were assayed for total SMN protein in comparison to the housekeeping genes, actin and GAPDH (FIGS. 14 and 15, respectively). There was a dose-dependent increase in SMN protein levels ranging from 2-3 fold.

Row | Structure (SMILES) | EC50 [1] | % Activation [1] | also measured
1 | O=C(Nc1nc2cnc(C(F)(F)F)cc2s1)c1ncco1 [N-(6-trifluoromethyl)thiazolo[4,5-c]pyridin-2-yl)oxazole-2-carboxamide] | 1300 nM | 74% | –
2 | O=C(Nc1nc2ncc(C(F)(F)F)cc2s1)c1cscn1 [Compound 299-9-1] | 1220 nM | 154% | –
3 | O=C(Nc1nc2cnc(C(F)(F)F)cc2s1)c1cccnc1 [Compound 299-16-1] | 154 nM | 177% | –
4 | O=C(Nc1nc2cnc(Cl)cc2s1)c1ccccc1 [Compound 299-1-1] | 2020 nM | 154% | –
5 | O=C(Nc1nc2cnc(C(F)(F)F)cc2o1)c1ccccc1 [Compound 301-62-1] | 1250 nM | 80% | –
6 | O=C(Nc1nc2cnc(C(F)(F)F)cc2s1)c1cscn1 [Compound 311-84] | 620 nM | 270% | –
7 | O=C(Nc1nc2cnc(C(F)(F)F)cc2s1)c1cnsc1 [Compound 324-44-1] | 380 nM | 220% | –
8 | O=C(Nc1nc2cnc(C(F)(F)F)cc2s1)c1cncs1 [Compound 299-93-1] | 142 nM | 140% | –
9 | O=C(Nc1nc2cnc(C(F)(F)F)cc2s1)c1ccccn1 [Compound 299-15-1] | 172 nM | 169.5% | –
10 | O=C(Nc1nc2cnc(C(F)(F)F)cc2s1)c1ccno1 [Compound 324-26-1] | 214 nM | 193% | –
11 | O=C(Nc1nc2cnc(C(F)(F)F)cc2s1)c1ccncn1 [Compound 299-73-1] | 2680 nM | 162% | –
12 | O=C(Nc1nc2cnc(C(F)(F)F)cc2s1)c1ccon1 [Compound 299-55-1] | 245 nM | 245% | –
13 | O=C(Nc1nc2ncc(C(F)(F)F)cc2s1)c1ccccn1 [Compound 287-51-1] | 1000 nM | 110% | –
14 | O=C(Nc1nc2cnc(C(F)(F)F)cc2s1)c1ccns1 [Compound 324-36-1] | 64 nM | 198% | –
15 | COc1cc2sc(NC(=O)c3ccccc3)nc2cn1 [Compound 324-2-1] | 675 nM | 150% | –
16 | O=C(Nc1nc2cnc(C(F)(F)F)cc2s1)c1cncnc1 [Compound 301-90-1] | 2700 nM | 170% | –
17 | O=C(Nc1nc2cnc(C(F)(F)F)cc2s1)c1ccc(F)cc1 [Compound 311-65] | 612 nM | 87.5% | –
18 | O=C(Nc1nc2cnc(C(F)(F)F)cc2s1)c1ccsn1 [Compound 324-48-1] | 335 nM | 210% | –
19 | O=C(Nc1nc2cnc(C(F)(F)F)cc2s1)c1cc[nH]n1 [Compound 324-25-1] | 2040 nM | 178% | –
20 | O=C(Nc1nc2cnc(C(F)(F)F)cc2s1)c1cnco1 [Compound 299-53-1] | 4400 nM | 200% | –
21 | O=C(Nc1nc2ncc(C(F)(F)F)cc2s1)c1ccccc1 [Compound 287-98-2] | 2300 nM | 150% | –
22 | O=C(Nc1nc2ncc(C(F)(F)F)cc2s1)c1cncs1 [Compound 299-10-1] | 3200 nM | 112% | –
23 | O=C(Nc1nc2cnc(C(F)(F)F)cc2s1)c1nccs1 [Compound 311-85] | 163 nM | 218% | –
24 | O=C(Nc1nc2cnc(C(F)(F)F)cc2s1)c1cocn1 [Compound 299-54-1] | 1140 nM | 208% | –
25 | Cc1cc(C(=O)Nc2nc3cnc(C(F)(F)F)cc3s2)no1 [Compound 324-33-1] | 5400 nM | 110% | –
26 | O=C(Nc1nc2cnc(C(F)(F)F)cc2s1)c1ccnnc1 [Compound 299-63-1] | 11300 nM | 163% | –
27 | O=C(Nc1nc2cnc(C(F)(F)F)cc2s1)c1ccccc1 [Compound 291-88-1] | 169 nM | 216% | maximal increase in SMN-luciferase greater than the DMSO control ([1]; 48 hours, 3 μM): 400%; increase of SMN protein expression [2]: 2-3 fold; effect on renilla luciferase [3]: no effect; median survival [4]: 18.5 days; increase in SMN protein levels in brain [5]: 2-3 fold
